Results: patent publication US10517889B2, “Modulators of SMAD7 expression” (Ionis Pharmaceuticals, Inc., priority 2017, dated 2019)
Strand notation (5' to 3'): a small letter for the sugar, then the base; units joined by * are phosphorothioate-linked, units joined directly phosphodiester-linked; [ ] holds rarer units or linkages, { } end groups; capitals alone tell only the bases. k = constrained ethyl (cEt); [5mC] = 5-methylcytosine; d = 2'-deoxy (DNA)

Test system: human SMAD7 mRNA
Test: Antisense inhibition of human SMAD7 mRNA expression in Hep3B cells by 3-10-3 cEt gapmers, 10,000 nM, electroporation (Example 2)
Type: cell-based
Details: Hep3B cells, 10,000 nM antisense oligonucleotide, electroporation, approximately 24 hours, RT-PCR primer probe set RTS5062, relative to untreated control cells
Outline: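 SMAD7 mRNA was measured by real-time PCR (RTS5062) with RiboGreen total-RNA normalization, about 24 h after 10,000 nM gapmer was delivered by electroporation into Hep3B cells at 20,000 per well. Gapmers were 16-mer 3-10-3 cEt, fully phosphorothioate; values are % inhibition versus untreated controls.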

Substance | % Inhibition [%]
799953 (antisense kA*kG*kA*dA*dA*dA*dT*dG*d[5mC]*d[5mC]*d[5mC]*dA*d[5mC]*k[5mC]*kA*kG) [compound 799953] | 0
798925 (kA*kG*kT*dA*dG*dT*dT*dT*dG*dA*dA*dG*dT*kG*kT*kG; antisense) [compound 798925] | 0
800036 (kG*kT*kT*dA*dG*dG*dA*d[5mC]*dA*dG*d[5mC]*dT*d[5mC]*k[5mC]*kA*kG; antisense) [compound 800036] | 38
799877 (kA*k[5mC]*kT*dT*dT*dA*d[5mC]*dA*dA*d[5mC]*d[5mC]*d[5mC]*dA*kA*kT*kA; antisense) [compound 799877] | 52

Same assay, conditions: Hep3B cells, electroporation with 10,000 nM antisense oligonucleotide, approximately 24 hours, RTS5062, percent inhibition of SMAD7 mRNA relative to untreated control cells

Substance | % Inhibition [%]
799849 (kA*kT*kA*dA*dG*d[5mC]*d[5mC]*dG*dA*dT*d[5mC]*dA*d[5mC]*kA*kA*kA; antisense) [compound 799849] | 41
799628 (kA*k[5mC]*kA*d[5mC]*dA*d[5mC]*dA*d[5mC]*dA*dA*dG*d[5mC]*dT*kT*kG*k[5mC]; antisense) [compound 799628] | 38
799571 (k[5mC]*kA*kG*dA*dA*dA*dA*dG*dA*dT*dG*d[5mC]*dA*kG*kT*kT; antisense) [compound 799571] | 46
799786 (kA*k[5mC]*kA*dG*dA*dA*dG*d[5mC]*dT*dG*d[5mC]*d[5mC]*d[5mC]*k[5mC]*kT*kG; antisense) [compound 799786] | 0
799788 (k[5mC]*kA*k[5mC]*dA*dA*d[5mC]*d[5mC]*dA*dA*dA*dG*d[5mC]*dA*kG*kA*kA; antisense) [compound 799788] | 59
799606 (kT*kT*kT*dA*d[5mC]*dA*dA*dA*dA*d[5mC]*dT*d[5mC]*dT*k[5mC]*kT*kG; antisense) [compound 799606] | 50

Same assay, conditions: Hep3B cells, electroporation with 10,000 nM antisense oligonucleotide, approximately 24 hours, SMAD7 mRNA by RT-PCR (RTS5062), relative to untreated control cells

Substance | % Inhibition [%]
830186 (antisense kA*kG*kG*dT*d[5mC]*d[5mC]*dA*dG*dG*dG*dT*d[5mC]*d[5mC]*kT*k[5mC]*k[5mC]) [compound 830186] | 50
799337 (kG*kT*k[5mC]*dT*dT*dT*d[5mC]*d[5mC]*dG*dG*dG*dT*dG*k[5mC]*kG*kG; antisense) [compound 799337] | 30
799882 (kT*kT*kT*dG*dA*dA*d[5mC]*dA*dT*dT*dT*dA*d[5mC]*kT*kG*k[5mC]; antisense) [compound 799882] | 41
798738 (antisense k[5mC]*kT*kT*d[5mC]*dA*dG*dA*dT*d[5mC]*d[5mC]*dG*d[5mC]*d[5mC]*kT*k[5mC]*kG) [compound 798738] | 25
800006 (k[5mC]*kA*kA*dG*dG*dA*dA*dT*dT*dT*dT*d[5mC]*d[5mC]*k[5mC]*k[5mC]*kT; antisense) [compound 800006] | 41
830146 (antisense kT*kG*kG*dT*d[5mC]*dT*dT*d[5mC]*dA*d[5mC]*d[5mC]*dA*dG*kG*kG*kT) [compound 830146] | 62
830182 (antisense kG*kT*kG*dT*d[5mC]*d[5mC]*dT*dT*d[5mC]*dA*dG*dA*dA*k[5mC]*kA*k[5mC]) [compound 830182] | 0
798734 (antisense kG*k[5mC]*k[5mC]*d[5mC]*dG*d[5mC]*dG*dG*d[5mC]*dT*dG*dG*d[5mC]*kG*kG*kG) [compound 798734] | 0
798879 (kA*k[5mC]*kG*dG*d[5mC]*dT*dG*d[5mC]*dT*dG*d[5mC]*dA*dT*kA*kA*kA; antisense) [compound 798879] | 57
800099 (antisense kT*kG*k[5mC]*dA*dA*dA*dG*dG*dG*dA*d[5mC]*d[5mC]*d[5mC]*kT*kT*kA) [compound 800099] | 6
830042 (antisense k[5mC]*kA*kG*dG*dT*dT*dA*dA*dT*d[5mC]*dA*d[5mC]*dT*kT*k[5mC]*k[5mC]) [compound 830042] | 64
830124 (antisense k[5mC]*k[5mC]*kG*dA*dG*dG*d[5mC]*dA*d[5mC]*d[5mC]*dA*d[5mC]*dA*kT*kT*kT) [compound 830124] | 27

Same assay, conditions: Hep3B cells, electroporation with 10,000 nM antisense oligonucleotide, approximately 24 hours, primer probe set RTS5062, relative to untreated control cells

Substance | % inhibition of SMAD7 mRNA expression [%] | % Inhibition [%]
798952 (antisense kT*kA*kT*dT*dT*d[5mC]*dT*d[5mC]*dA*dA*dA*dG*dA*kG*k[5mC]*kG) [compound 798952] | 61 | 
799459 (antisense kA*k[5mC]*kA*dG*dA*dG*dT*d[5mC]*dT*dT*dT*dG*dA*kA*kA*kA) [compound 799459] | 0 | 
799003 (antisense kA*k[5mC]*kA*d[5mC]*dA*dG*d[5mC]*d[5mC]*dG*d[5mC]*dA*d[5mC]*dA*k[5mC]*kT*k[5mC]) [compound 799003] | 0 | 
799210 (kT*kA*kA*dA*dT*dA*dA*dT*dG*dA*dT*dG*d[5mC]*kT*kT*kA; antisense) [compound 799210] |  | 10
799230 (kG*kG*kT*dG*dA*dT*dA*dA*d[5mC]*dA*d[5mC]*d[5mC]*d[5mC]*kA*kT*kA; antisense) [compound 799230] | 14 | 
799101 (antisense kG*kG*kA*dA*dA*dA*dA*d[5mC]*d[5mC]*dT*dG*dA*dT*kG*kT*k[5mC]) [compound 799101] |  | 55
799189 (antisense kA*kA*kT*dG*d[5mC]*dT*dT*d[5mC]*dT*d[5mC]*dT*dT*dG*kT*kT*k[5mC]) [compound 799189] | 33 | 
799441 (antisense k[5mC]*kT*kA*dG*dA*dA*dA*dA*dG*dT*dT*dA*dA*kG*kA*kG) [compound 799441] | 22 | 
799380 (antisense k[5mC]*kT*k[5mC]*d[5mC]*dT*dA*d[5mC]*dT*dG*dT*dA*dA*dG*kA*kG*kG) [compound 799380] | 1 | 
798780 (kA*kA*kG*dA*dT*dT*d[5mC]*dA*d[5mC]*dA*dG*d[5mC]*dA*kA*k[5mC]*kA; antisense) [compound 798780] | 58 | 
799054 (antisense k[5mC]*kA*kG*dA*dA*dG*d[5mC]*d[5mC]*dT*dG*dT*dG*dG*kA*k[5mC]*kA) [compound 799054] |  | 15
799188 (antisense kT*kG*k[5mC]*dT*dT*d[5mC]*dT*d[5mC]*dT*dT*dG*dT*dT*k[5mC]*kA*kT) [compound 799188] | 43 | 
799016 (k[5mC]*kA*kA*dA*d[5mC]*d[5mC]*dT*d[5mC]*dT*d[5mC]*dT*dG*d[5mC]*kT*kG*kG; antisense) [compound 799016] |  | 30
799024 (k[5mC]*kT*kT*dG*dG*dG*dA*d[5mC]*dT*dG*d[5mC]*dA*dA*kA*k[5mC]*k[5mC]; antisense) [compound 799024] | 0 | 
798711 (antisense k[5mC]*kG*kG*d[5mC]*d[5mC]*d[5mC]*d[5mC]*dA*dT*dG*d[5mC]*dG*d[5mC]*kT*k[5mC]*kG) [compound 798711] | 59 | 

Same assay, conditions: Hep3B cells, electroporation, 10,000 nM antisense oligonucleotide, approximately 24 hours, RTS5062, relative to untreated control cells

Substance | % inhibition of SMAD7 mRNA expression [%]
799640 (k[5mC]*kA*kA*dG*dG*dA*d[5mC]*d[5mC]*dT*dG*dT*dT*d[5mC]*kT*kG*kG; antisense) [compound 799640] | 40
799732 (antisense kG*kG*kG*dA*dT*d[5mC]*dA*dG*dG*dT*dG*dA*dG*kT*kG*kT) [compound 799732] | 48
799693 (antisense kT*kT*kA*dT*dG*dA*d[5mC]*dA*d[5mC]*dA*dG*dT*dA*kA*k[5mC]*kA) [compound 799693] | 17

Same assay, conditions: SMAD7 mRNA, Hep3B cells, 10,000 nM antisense oligonucleotide, electroporation, approximately 24 hours, primer probe set RTS5062, relative to untreated control cells

Substance | % Inhibition [%]
772623 (kA*kG*kT*d[5mC]*d[5mC]*dG*dG*dG*dT*dT*dG*dT*d[5mC]*k[5mC]*kA*kG; antisense) [compound 772623] | 42
790791 (kG*kG*kG*d[5mC]*dA*d[5mC]*dA*d[5mC]*d[5mC]*dA*d[5mC]*d[5mC]*dT*kG*k[5mC]*k[5mC]; antisense) [compound 790791] | 7
772809 (k[5mC]*k[5mC]*kT*dA*dA*dA*d[5mC]*dT*dG*dA*dG*d[5mC]*d[5mC]*k[5mC]*k[5mC]*kA; antisense) [compound 772809] | 48
829716 (antisense kG*kT*k[5mC]*dT*d[5mC]*d[5mC]*d[5mC]*dG*dG*dA*dG*dG*d[5mC]*k[5mC]*kG*kG) [compound 829716] | 10
829721 (antisense kT*kG*k[5mC]*dG*d[5mC]*d[5mC]*dA*dG*dT*d[5mC]*dT*d[5mC]*d[5mC]*k[5mC]*kG*kG) [compound 829721] | 33

Same assay, conditions: SMAD7 mRNA, Hep3B cells, electroporation with 10,000 nM antisense oligonucleotide, approximately 24 hours, primer probe set RTS5062, relative to untreated control cells

Substance | % Inhibition [%]
829886 (antisense kG*kT*kG*dG*dT*d[5mC]*dA*dT*dT*dG*dG*dG*d[5mC]*k[5mC]*kG*k[5mC]) [compound 829886] | 6
829984 (kA*kG*kG*d[5mC]*dG*dG*dT*dG*dA*dT*dT*dG*d[5mC]*k[5mC]*kT*kT; antisense) [compound 829984] | 0
829969 (kG*kA*kA*d[5mC]*d[5mC]*d[5mC]*d[5mC]*d[5mC]*dA*dG*dG*dG*dA*kA*kT*kG; antisense) [compound 829969] | 17
829833 (kG*kT*kG*dA*d[5mC]*d[5mC]*dG*dA*dT*d[5mC]*d[5mC]*d[5mC]*d[5mC]*kA*kG*kG; antisense) [compound 829833] | 0
